Reference: US4311700A, “Pyrimidobenzodiazepinones, their use and medicaments containing them” (priority 1979, dated 1982)

Experiments:
[1] = tested on: Shay rats; assay: Antiulcerogenic action (protective action on the stomach) in Shay rats, pylorus ligature plus acetylsalicylic acid; format: in vivo, rat; settings: for TQ LD50/ED50 (therapeutic quotient): LD50 i.v. mice / ED50 p.o. rats; for ED50: Rattus norvegicus, po, p.o. 1 hour before pylorus ligature, dose reducing ulcer index by 50% vs control, read-out: Protective action on the stomach ED50 administered perorally to rats
Experimental: The effect of the compounds according to the invention on the formation, in rats, of gastric ulcers provoked by a pylorus ligature and 100 mg/kg of acetylsalicyclic acid, (administered orally) is shown in table II.
ED50 = the dose which reduces the ulcer index for the group treated
by 50% compared with the control group
The anti-ulcerogenic action is tested by a method using the so-caled Shay rats:
(§1) Ulcers are provoked in rats which have been starved for 24 hours (female rats, 180 to 200 g, 4 animals in a cage with a high grille) by means of a pylorus ligature (under anaesthesia with diethyl ether) and oral administration of 100 mg/10 ml/kg of acetylsalicyclic acid. The substances to be tested are administered orally (10 ml/kg) 1 hour before the pylorus ligature. The closure of the wound is effected by means of Michel's clips. The animals are killed 4 hours afterwards under ether anaesthesia by dislocating the atlas, and the stomach is cut out. The stomach is opened longitudinally and is fixed on a cork slab, the quantity of gastric juice secreted (volume) and the hydrochloric acid content having been determined beforehand; the number and size (= diameter) of ulcers present are determined by means of a stereomicroscope at a 10-fold magnification. The product of the degree of severity (in accordance with the following rating scale) and the number of the ulcers is used as an individual ulcer index.
ulcer diameter 0.1-1.4 mm
The reduction in the average ulcer index in each group treated compared with that of the control group (=100%) is used as a measure of the anti-ulcerogenic effect. The ED50 indicates the dose which reduces the average ulcer index by 50%.

[2] = tested on: stomach secretion; assay: Inhibition of stomach secretion (volume and hydrochloric acid) in rats; format: in vivo, rat; settings: 4 hours after administration of the antiulcerogenic ED50
Experimental: *% inhibition = inhibition (in %) of stomach secretion 4 hours after
administration of the antiulcerogenic ED50
as §1

[3] = Determination of toxicity, intravenous, mice; settings: mouse, in vivo, i.v., female NMRI mice, 7 days observation, read-out: Toxicity LD50 administered intravenously to mice
Experimental: LD50 = the dose at which 50% of the animals die
The toxicity investigations are carried out on female NMRI mice (body weight 22 to 26 g). The animals (5 animals per dose) receive feed and water ad lib. Various doses of the substances are administered intravenously (duration of injection 1 minute). The observation period is 7 days. The LD50 (the dose at which 50% of the animals die) is determined by means of a linear regression.

Row | SMILES | TQ LD50/ED50 (therapeutic quotient) [1] | ED50 [1] | anti-ulcerogenic action at high dose ([1]; even at 300 mg/kg, rats) | dose/action curve (dose dependence of the action) ([1]; rats, p.o.) | % inhibition of stomach secretion in rats, hydrochloric acid [2] | % inhibition of stomach secretion in rats, volume [2] | LD50 at 168 h [3] | inhibitory effect (anti-ulcerogenic action) ([1]; 30 mg/kg, p.o., rats)
1 | CC1(C)[C@@H](OC(=O)CCC(=O)O)CC[C@]2(C)[C@H]3C(=O)C=C4[C@@H]5C[C@@](C)(C(=O)O)CC[C@]5(C)CC[C@@]4(C)[C@]3(C)CC[C@@H]12 [Compound 1, Carbenoxolone, reference compound] | ~ 4.1 | ~70 mg/kg | not possible to achieve any substantial increase in the anti-ulcerogenic action | the dose/action curve then flattens out very considerably | 4% | 7% | 290 mg/kg | 
2 | CN(C)CCN(C)CC(=O)N1c2ccccc2N(C)C(=O)c2cnc(-c3ccccc3)nc21 [Compound 5, 11-[N-(2-dimethylaminoethyl)-N-methylamino]acetyl-6-methyl-2-phenyl-5,6-dihydropyrimido[4,5-b][1,5]benzodiazepin-5-one] |  | < 10 mg/kg |  |  |  |  |  | up to 100%
3 | CN1CCN(CC(=O)N2c3ccccc3N(C)C(=O)c3cnc(-c4ccccc4)nc32)CC1 [Compound 3, 6-Methyl-11-[(4-methyl-1-piperazinyl)acetyl]-2-phenyl-5,6-dihydropyrimido[4,5-b][1,5]benzodiazepin-5-one] | 10.5 | 9 mg/kg |  |  |  | 7% | 95 mg/kg | 
4 | CN1CCN(CC(=O)N2c3ccccc3NC(=O)c3cncnc32)CC1 [Compound 2, 11-[(4-Methyl-1-piperazinyl)acetyl]-5,6-dihydropyrimido[4,5-b][1,5]benzodiazepin-5-one] | 15 | 12 mg/kg |  |  | 5% | 10% | 180 mg/kg | 
5 | CN1C(=O)c2cnc(-c3ccccc3)nc2N(C(=O)CN2CCCCC2)c2ccccc21 [Compound 4, 6-Methyl-2-phenyl-11-piperidinoacetyl-5,6-dihydropyrimido[4,5-b][1,5]benzodiazepin-5-one] | ~ 20 | ~8 mg/kg |  |  | 22% | 32% | 160 mg/kg | 
